Measured values: PubChem BioAssay AID1919006 (Molecular Pharmacology Branch, DTP, NCI, 2023)
pIC50: −log10 of the molar value. Values belong to the compound of their own block, whether it stands above or below them.

System: 885512-296-R-J2-PDC complex spheroid growth, % test/control
Test: Anticancer human tumor 885512-296-R-J2-PDC patient-derived breast carcinoma cell line growth inhibition [AhR]
Settings: for pIC50: curve of first compound; for viability, T/C: stronger effect = lower value
Procedure, shortened: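 Agents were dosed in half-log steps down from roughly clinical Cmax, or from 10 microM where Cmax was unknown, alone and with AhR antagonists. Read-out: percent test/control growth of tumor spheroids containing HUVEC and MSC stromal cells.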

[1] = second compound 0.1 µM, first compound 0.0316 µM
[2] = second compound 0.1 µM, first compound 0.1 µM
[3] = second compound 0.1 µM, first compound 0.316 µM
[4] = second compound 0.1 µM, first compound 1 µM
[5] = second compound 0.316 µM, first compound 0.0316 µM
[6] = second compound 0.316 µM, first compound 0.1 µM
[7] = second compound 0.316 µM, first compound 0.316 µM
[8] = second compound 0.316 µM, first compound 1 µM
[9] = second compound 1 µM, first compound 0.0316 µM
[10] = second compound 1 µM, first compound 0.1 µM
[11] = second compound 1 µM, first compound 0.316 µM
[12] = second compound 1 µM, first compound 1 µM
[13] = second compound 3.16 µM, first compound 0.0316 µM
[14] = second compound 3.16 µM, first compound 0.1 µM
[15] = second compound 3.16 µM, first compound 0.316 µM
[16] = second compound 3.16 µM, first compound 1 µM
[17] = second compound 10 µM, first compound 0.0316 µM
[18] = second compound 10 µM, first compound 0.1 µM
[19] = second compound 10 µM, first compound 0.316 µM
[20] = second compound 10 µM, first compound 1 µM
[21] = second compound 0.1 µM, first compound 0.00949 µM
[22] = second compound 0.1 µM, first compound 0.03 µM
[23] = second compound 0.1 µM, first compound 0.0949 µM
[24] = second compound 0.1 µM, first compound 0.3 µM
[25] = second compound 0.1 µM, first compound 0.949 µM
[26] = second compound 0.1 µM, first compound 3 µM
[27] = second compound 0.316 µM, first compound 0.00949 µM
[28] = second compound 0.316 µM, first compound 0.03 µM
[29] = second compound 0.316 µM, first compound 0.0949 µM
[30] = second compound 0.316 µM, first compound 0.3 µM
[31] = second compound 0.316 µM, first compound 0.949 µM
[32] = second compound 0.316 µM, first compound 3 µM
[33] = second compound 1 µM, first compound 0.00949 µM
[34] = second compound 1 µM, first compound 0.03 µM
[35] = second compound 1 µM, first compound 0.0949 µM
[36] = second compound 1 µM, first compound 0.3 µM
[37] = second compound 1 µM, first compound 0.949 µM
[38] = second compound 1 µM, first compound 3 µM
[39] = second compound 3.16 µM, first compound 0.00949 µM
[40] = second compound 3.16 µM, first compound 0.03 µM
[41] = second compound 3.16 µM, first compound 0.0949 µM
[42] = second compound 3.16 µM, first compound 0.3 µM
[43] = second compound 3.16 µM, first compound 0.949 µM
[44] = second compound 3.16 µM, first compound 3 µM
[45] = second compound 10 µM, first compound 0.00949 µM
[46] = second compound 10 µM, first compound 0.03 µM
[47] = second compound 10 µM, first compound 0.0949 µM
[48] = second compound 10 µM, first compound 0.3 µM
[49] = second compound 10 µM, first compound 0.949 µM
[50] = second compound 10 µM, first compound 3 µM
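Further: spheroids exposed to compounds for seven days.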

SMILES: CC1COCCN1c1cc(C2(S(C)(=N)=O)CC2)nc(-c2ccnc3[nH]ccc23)n1 (stereo not given) + CC(CO)NC(=O)c1cc(-c2ccc(Cl)cc2)nn(-c2cnn(C)c2)c1=O
- pIC50 (second compound 0.1 µM): 5.77
- pIC50 (second compound 0.316 µM): 5.74
- pIC50 (second compound 1 µM): 5.81
- pIC50 (second compound 3.16 µM): 5.94
- pIC50 (second compound 10 µM): 6.17
- viability, T/C [1]: 102%
- viability, T/C [2]: 96.4%
- viability, T/C [3]: 87%
- viability, T/C [4]: 76%
- viability, T/C (second compound 0.1 µM, first compound 3.16 µM): 19.1%
- viability, T/C (second compound 0.1 µM, first compound 10 µM): 5.46%
- viability, T/C [5]: 95.1%
- viability, T/C [6]: 102%
- viability, T/C [7]: 94.2%
- viability, T/C [8]: 84.4%
- viability, T/C (second compound 0.316 µM, first compound 3.16 µM): 17.1%
- viability, T/C (second compound 0.316 µM, first compound 10 µM): 4.07%
- viability, T/C [9]: 100%
- viability, T/C [10]: 97%
- viability, T/C [11]: 99%
- viability, T/C [12]: 70.3%
- viability, T/C (second compound 1 µM, first compound 3.16 µM): 16.7%
- viability, T/C (second compound 1 µM, first compound 10 µM): 5.36%
- viability, T/C [13]: 89.4%
- viability, T/C [14]: 83.5%
- viability, T/C [15]: 82.8%
- viability, T/C [16]: 55.1%
- viability, T/C (second compound 3.16 µM, first compound 3.16 µM): 11.1%
- viability, T/C (second compound 3.16 µM, first compound 10 µM): 4.04%
- viability, T/C [17]: 96.9%
- viability, T/C [18]: 95.3%
- viability, T/C [19]: 72.6%
- viability, T/C [20]: 38.3%
- viability, T/C (second compound 10 µM, first compound 3.16 µM): 11.3%
- viability, T/C (second compound 10 µM, first compound 10 µM): 4.98%

SMILES: CCN(c1cc(-c2ccc(CN3CCOCC3)cc2)cc(C(=O)NCc2c(C)cc(C)[nH]c2=O)c1C)C1CCOCC1 + CC(CO)NC(=O)c1cc(-c2ccc(Cl)cc2)nn(-c2cnn(C)c2)c1=O
- pIC50 (second compound 0.1 µM): < 5.52
- pIC50 (second compound 0.316 µM): < 5.52
- pIC50 (second compound 1 µM): < 5.52
- pIC50 (second compound 3.16 µM): < 5.52
- pIC50 (second compound 10 µM): < 5.52
- viability, T/C [21]: 105%
- viability, T/C [22]: 96.8%
- viability, T/C [23]: 83.3%
- viability, T/C [24]: 79.6%
- viability, T/C [25]: 74.9%
- viability, T/C [26]: 84.1%
- viability, T/C [27]: 106%
- viability, T/C [28]: 102%
- viability, T/C [29]: 93%
- viability, T/C [30]: 78.9%
- viability, T/C [31]: 70.5%
- viability, T/C [32]: 69.1%
- viability, T/C [33]: 88.8%
- viability, T/C [34]: 111%
- viability, T/C [35]: 93.3%
- viability, T/C [36]: 82%
- viability, T/C [37]: 80.3%
- viability, T/C [38]: 80.9%
- viability, T/C [39]: 88.3%
- viability, T/C [40]: 90.3%
- viability, T/C [41]: 82.9%
- viability, T/C [42]: 86.7%
- viability, T/C [43]: 71.4%
- viability, T/C [44]: 78.2%
- viability, T/C [45]: 94.4%
- viability, T/C [46]: 97.5%
- viability, T/C [47]: 88%
- viability, T/C [48]: 86.4%
- viability, T/C [49]: 68.5%
- viability, T/C [50]: 71.7%

Now those with a higher pIC50 (second compound 0.1 µM), led by results:

- pIC50 (second compound 0.1 µM): 6.56
- pIC50 (second compound 0.316 µM): < 6.52
- pIC50 (second compound 1 µM): < 6.52
- pIC50 (second compound 3.16 µM): 6.63
- pIC50 (second compound 10 µM): 6.56
SMILES: Nc1ncn(C2CC(O)C(CO)S2)c(=O)n1 (stereo not given) + CC(CO)NC(=O)c1cc(-c2ccc(Cl)cc2)nn(-c2cnn(C)c2)c1=O
- viability, T/C (second compound 0.1 µM, first compound 0.000949 µM): 98.8%
- viability, T/C (second compound 0.1 µM, first compound 0.003 µM): 117%
- viability, T/C [21]: 108%
- viability, T/C [22]: 125%
- viability, T/C [23]: 77%
- viability, T/C [24]: 47.5%
- viability, T/C (second compound 0.316 µM, first compound 0.000949 µM): 106%
- viability, T/C (second compound 0.316 µM, first compound 0.003 µM): 92.9%
- viability, T/C [27]: 146%
- viability, T/C [28]: 111%
- viability, T/C [29]: 80.5%
- viability, T/C [30]: 54.2%
- viability, T/C (second compound 1 µM, first compound 0.000949 µM): 106%
- viability, T/C (second compound 1 µM, first compound 0.003 µM): 104%
- viability, T/C [33]: 113%
- viability, T/C [34]: 127%
- viability, T/C [35]: 81.4%
- viability, T/C [36]: 54.1%
- viability, T/C (second compound 3.16 µM, first compound 0.000949 µM): 97.9%
- viability, T/C (second compound 3.16 µM, first compound 0.003 µM): 101%
- viability, T/C [39]: 112%
- viability, T/C [40]: 87.2%
- viability, T/C [41]: 72.2%
- viability, T/C [42]: 43.9%
- viability, T/C (second compound 10 µM, first compound 0.000949 µM): 101%
- viability, T/C (second compound 10 µM, first compound 0.003 µM): 96.3%
- viability, T/C [45]: 100%
- viability, T/C [46]: 93.1%
- viability, T/C [47]: 70.8%
- viability, T/C [48]: 48.2%

- pIC50 (second compound 0.1 µM): 7.20
- pIC50 (second compound 0.316 µM): 7.17
- pIC50 (second compound 1 µM): 7.14
- pIC50 (second compound 3.16 µM): 7.18
- pIC50 (second compound 10 µM): 7.18
SMILES: O=C(C=Cn1cnc(-c2cc(C(F)(F)F)cc(C(F)(F)F)c2)n1)NNc1cnccn1 + CC(CO)NC(=O)c1cc(-c2ccc(Cl)cc2)nn(-c2cnn(C)c2)c1=O
- viability, T/C [21]: 91.7%
- viability, T/C [22]: 99.7%
- viability, T/C [23]: 24.6%
- viability, T/C [24]: 3.85%
- viability, T/C [25]: 2.45%
- viability, T/C [26]: 0.96%
- viability, T/C [27]: 101%
- viability, T/C [28]: 98.8%
- viability, T/C [29]: 29.1%
- viability, T/C [30]: 3.67%
- viability, T/C [31]: 1.87%
- viability, T/C [32]: 0.84%
- viability, T/C [33]: 94.2%
- viability, T/C [34]: 109%
- viability, T/C [35]: 33.4%
- viability, T/C [36]: 5.46%
- viability, T/C [37]: 1.59%
- viability, T/C [38]: 0.91%
- viability, T/C [39]: 92.2%
- viability, T/C [40]: 111%
- viability, T/C [41]: 25.7%
- viability, T/C [42]: 6.14%
- viability, T/C [43]: 1.92%
- viability, T/C [44]: 0.85%
- viability, T/C [45]: 114%
- viability, T/C [46]: 107%
- viability, T/C [47]: 24.1%
- viability, T/C [48]: 4.61%
- viability, T/C [49]: 2%
- viability, T/C [50]: 0.87%

- pIC50 (second compound 0.1 µM): 7.37
- pIC50 (second compound 0.316 µM): 7.47
- pIC50 (second compound 1 µM): 7.45
- pIC50 (second compound 3.16 µM): 7.54
- pIC50 (second compound 10 µM): 7.71
SMILES: CC1COCCN1c1cc(-c2ccnn2C)c2ccnc(-c3ccn[nH]3)c2n1 (stereo not given) + CC(CO)NC(=O)c1cc(-c2ccc(Cl)cc2)nn(-c2cnn(C)c2)c1=O
- viability, T/C (second compound 0.1 µM, first compound 0.00316 µM): 112%
- viability, T/C (second compound 0.1 µM, first compound 0.01 µM): 87.6%
- viability, T/C [1]: 67.8%
- viability, T/C [2]: 10.4%
- viability, T/C [3]: 3.86%
- viability, T/C [4]: 2.47%
- viability, T/C (second compound 0.316 µM, first compound 0.00316 µM): 96.6%
- viability, T/C (second compound 0.316 µM, first compound 0.01 µM): 84.4%
- viability, T/C [5]: 54.2%
- viability, T/C [6]: 10.6%
- viability, T/C [7]: 3.26%
- viability, T/C [8]: 2.5%
- viability, T/C (second compound 1 µM, first compound 0.00316 µM): 93.4%
- viability, T/C (second compound 1 µM, first compound 0.01 µM): 91.7%
- viability, T/C [9]: 53.4%
- viability, T/C [10]: 10.7%
- viability, T/C [11]: 2.7%
- viability, T/C [12]: 2.39%
- viability, T/C (second compound 3.16 µM, first compound 0.00316 µM): 91.2%
- viability, T/C (second compound 3.16 µM, first compound 0.01 µM): 87.7%
- viability, T/C [13]: 47%
- viability, T/C [14]: 6.94%
- viability, T/C [15]: 2.32%
- viability, T/C [16]: 2.05%
- viability, T/C (second compound 10 µM, first compound 0.00316 µM): 90.5%
- viability, T/C (second compound 10 µM, first compound 0.01 µM): 84.2%
- viability, T/C [17]: 25.7%
- viability, T/C [18]: 4.34%
- viability, T/C [19]: 2.45%
- viability, T/C [20]: 2.06%
